Test results taken from patent publication US5145783A, “Glyphosate-tolerant 5-endolpyruvyl-3-phosphoshikimate synthase” (Monsanto Company, priority 1990, dated 1992).
pIC50: −log10 of the molar value.

Tests used:
[1] = target: T1, Arabidopsis EPSP synthase with the alanine for glycine substitution at position 101 (Arabidopsis thaliana, UniProt P05466, G177A); experiment: EPSP synthase activity in protein extracts of Brassica napus calli transformed with pMON600; format: biochemical
T1 construct: the expressed Arabidopsis EPSP synthase would include the alanine for glycine substitution at position 101 of the mature enzyme; expressed in transfected cells; host or cells: Brassica napus calli transformed by Agrobacterium harboring pMON600, protein extract
T1 sequence (P05466 77-520 G177A): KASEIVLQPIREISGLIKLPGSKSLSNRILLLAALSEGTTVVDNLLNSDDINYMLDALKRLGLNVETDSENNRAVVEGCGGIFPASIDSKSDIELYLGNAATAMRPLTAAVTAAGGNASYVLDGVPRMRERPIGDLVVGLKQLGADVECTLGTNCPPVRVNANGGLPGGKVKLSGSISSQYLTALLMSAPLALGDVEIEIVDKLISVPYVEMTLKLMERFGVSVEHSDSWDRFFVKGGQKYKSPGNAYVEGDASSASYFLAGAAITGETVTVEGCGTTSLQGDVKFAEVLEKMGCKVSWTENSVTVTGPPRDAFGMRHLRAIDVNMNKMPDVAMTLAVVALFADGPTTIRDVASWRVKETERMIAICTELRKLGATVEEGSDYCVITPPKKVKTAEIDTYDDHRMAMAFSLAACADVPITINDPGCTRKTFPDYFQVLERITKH
Procedure: The Agrobacterium harboring the pMON600 plasmid was used to transform explants of Brassica napus. Three gentamicin resistant calli were obtained. […] Proteins were extracted from samples of the calli and were assayed for EPSP synthase activity. All three of the calli contained EPSP synthase activity that was resistant to 0.5 mM glyphosate.
(§1) The EPSP synthase in the extracts was further characterized by titrating the resistance to glyphosate.

[2] = target: T2, glyphosate-tolerant petunia EPSP synthase (alanine for glycine at position 101) (Petunia hybrida, UniProt P11043, G173A); experiment: EPSP synthase inhibition, petunia enzyme carrying the alanine for glycine substitution; format: biochemical
T2 construct: made in house; host or cells: E. coli (overproducing), extract
T2 sequence (P11043 73-516 G173A): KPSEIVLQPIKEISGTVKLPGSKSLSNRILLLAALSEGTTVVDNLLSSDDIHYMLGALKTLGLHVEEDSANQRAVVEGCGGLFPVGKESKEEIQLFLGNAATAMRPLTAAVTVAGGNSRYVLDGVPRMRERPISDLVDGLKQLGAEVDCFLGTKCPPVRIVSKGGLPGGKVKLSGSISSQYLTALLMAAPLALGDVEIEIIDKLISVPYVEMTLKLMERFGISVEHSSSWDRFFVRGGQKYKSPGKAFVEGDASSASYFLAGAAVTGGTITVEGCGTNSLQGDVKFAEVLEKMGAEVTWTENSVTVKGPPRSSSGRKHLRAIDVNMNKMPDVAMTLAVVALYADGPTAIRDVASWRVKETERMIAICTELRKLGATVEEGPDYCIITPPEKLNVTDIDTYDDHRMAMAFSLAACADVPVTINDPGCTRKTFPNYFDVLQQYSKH
Source text: as §1

[3] = target: T3, wild-type maize EPSP synthase (Zea mays, UniProt A0A1D6NVZ6); experiment: EPSP synthase activity of in vitro translation product of pMON9951; format: biochemical; conditions: 1.0 mM glyphosate
T3 sequence (A0A1D6NVZ6 1-506): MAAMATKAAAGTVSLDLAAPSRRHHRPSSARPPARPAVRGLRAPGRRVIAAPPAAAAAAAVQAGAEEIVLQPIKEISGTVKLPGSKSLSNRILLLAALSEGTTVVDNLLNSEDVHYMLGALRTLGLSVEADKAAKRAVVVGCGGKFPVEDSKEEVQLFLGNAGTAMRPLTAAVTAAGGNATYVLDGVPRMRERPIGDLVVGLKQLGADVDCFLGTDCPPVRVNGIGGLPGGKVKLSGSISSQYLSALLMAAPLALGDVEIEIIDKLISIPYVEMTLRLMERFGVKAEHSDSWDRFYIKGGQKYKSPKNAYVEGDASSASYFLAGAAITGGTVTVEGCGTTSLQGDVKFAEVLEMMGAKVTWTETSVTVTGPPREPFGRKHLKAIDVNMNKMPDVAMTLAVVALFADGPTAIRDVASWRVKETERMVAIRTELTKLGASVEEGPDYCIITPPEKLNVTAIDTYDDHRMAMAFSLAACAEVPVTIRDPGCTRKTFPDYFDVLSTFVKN
Procedure: The linearized plasmid DNA was transcribed in vitro with T7 polymerase essentially as described by Krieg et al. 1984. The standard reaction buffer contained 40 mM Tris-HCl (pH 7.9), 6 mM MgCl2, 10 mM dithiothreitol, 2 mM spermidine, 80 U RNAsin ribuonuclease inhibitor, 0.5 mM each of ATP, GTP, CTP and UTP, in a final reaction volume of 100 μl. The final RNA pellet was resuspended in 20 μl of sterile water and stored at -80° C. A standard translation reaction contained 100 μl of nuclease-treated rabbit reticulocyte lysate, 5.7 μl of a 19-amino acid mixture (minus methionine at 1 mM each, 5.7 μl of RNA (total RNA transcripts derived from 0.63 μg of plasmid DNA), 16 μl RNAsin (20U/μl) ribonuclease inhibitor, and 58.3 μl of [^35 S] methionine (14-15 mCi/ml). The in vitro translation products were stored frozen at -80 ° C.
The products of the in vitro translation were then assayed for EPSP synthase activity as described herein.

[4] = system: control petunia leaf disks (pMON505); experiment: Callus growth of petunia leaf disks on glyphosate media, control vector pMON505; format: cell-based
Procedure: (§2) Leaf disks with diameters of 6 mm (1/4 inch) were taken from surface-sterilized petunia leaves. They were cultivated on MS104 agar medium for 2 days to promote partial cell wall formation at the wound surfaces. They were then submerged in a culture of A. tumefaciens cells containing both pMON546 and GV3111-SE which had been grown overnight in Luria broth at 28° C., and shaken gently. The cells were removed from the bacterial suspension, blotted dry, and incubated upside down on filter paper placed over "nurse" cultures of tobacco cells, as described in Horsch (1980). After 2 or 3 days, the disks were transferred to petri dishes containing MS media with 500 μg/ml carbenicillin and 0., 0.1, 0.25, or 0.5 mM glyphosate (sodium salt), with no nurse cultures.
(§3) Control tissue was created using A. tumefaciens cells containing the helper plasmid pGV3111-SE and a different plant transformation vector, pMON505, which contained a T-DNA region with a NOS/NPTII/NOS kanamycin resistance gene and a NOS selectable marker gene identical to pMON546, but without the CaMV35S/EPSP synthase gene.
(§4) Within 10 days after transfer to the media containing glyphosate, actively growing callus tissue appeared on the periphery of all disks on the control plate containing no glyphosate. […] This confirms that the CaMV35S/EPSP synthase gene conferred glyphosate resistance upon the transformed cells.

[5] = system: petunia leaf disks transformed with CaMV35S/EPSP synthase gene (pMON546); experiment: Callus growth of petunia leaf disks on glyphosate media, transformed with pMON546; format: cell-based
Procedure: as §2, §3, §4

[6] = system: MP4 cells (Mitchell diploid petunia); experiment: MP4 suspension culture in MS media containing glyphosate; format: cell-based; conditions: 0.5 mM glyphosate (sodium salt) in MS media, estimated; read-out: cells which survived, share of the starting population
Procedure: The starting cell line, designated as the MP4 line, was derived from a Mitchell diploid petunia (see e.g., Ausubel 1980). The MP4 cells were suspended in Murashige and Skoog (MS) culture media, (GIBCO, Grand Island, N.Y.) All transfers involved dispensing 10 ml of suspension cultures into 50 ml of fresh media. Cultivation periods until the next transfer ranged from 10 to 14 days, and were based on visual indications that the culture was approaching saturation.
Approximately 10 ml of saturated suspension culture (containing about 5×10^6 cells) were transferred into 50 ml of MS media containing 0.5 mM glyphosate. The sodium salt of glyphosate was used throughout the experiments described herein. The large majority of cells were unable to reproduce in the presence of the glyphosate. The cells which survived (estimated to be less than 1% of the starting population) were cultured in 0.5 mM glyphosate and transferred to fresh media containing glyphosate every 10 to 14 days.

For `O=C(O)CNCP(=O)(O)O` [glyphosate, N-phosphonomethylglycine], the pIC50 [1] was 2.12, the “EPSP synthase activity in the presence of glyphosate” value ([1]; 0.5 mM glyphosate, all three calli) was “resistant” and the pIC50 [2] was 1.80. The “EPSP synthase activity in the presence of glyphosate” value [3] was “no activity was detected”, the callus growth ([4]; 0.25 mM glyphosate) was “very little growth of callus” and the callus growth ([4]; 0.5 mM glyphosate) was “no callus growth”. For the same compound, the “callus growth, control disks versus transformed tissue” value ([5]; 0.1 mM glyphosate, within 10 days after transfer) was “little detectable difference”, the callus growth ([5]; 0.25 mM glyphosate, transformed tissue) was “substantial growth” and the callus growth ([5]; 0.5 mM glyphosate, transformed disks) was “a significant number of calli grew”. The viability at 500 µM [6] was under 1%.
